In PMC12935919 (Frontiers in Pharmacology, 2026):
No end group written: not given here.

Legend:
C2C12 cells [1] = assay: Myotube morphology during differentiation (microscopy, ImageJ); format: cell-based
Experimental: To induce C2C12 myotube differentiation, myoblasts were seeded in 6-well plates at 5 × 10^5 cells per well. Once reaching 90% confluency, they were cultured in DMEM supplemented with 2% horse serum (Thermo Fisher Scientific) and 1% penicillin-streptomycin. […] Differentiation was observed using an optical microscope (LEICA, 100×). Myotube morphology (length and diameter) was quantified in ImageJ (NIH) using the same images: myotube length was measured by tracing the long axis of each myotube (end-to-end), and myotube diameter was measured as the short-axis width at three positions along each myotube; the mean of the three width values was recorded as the diameter. For each experimental group, three randomly captured images (fields) were analyzed, and at least 15–20 myotubes per image were quantified under identical imaging settings.

[2] = molecular target: T1, human recombinant Myostatin-Fc protein (Mus musculus, UniProt O08689); assay: Surface plasmon resonance (SPR) analysis, Biacore T200; format: binding; conditions: 3.125 μM to 200 μM, 25 °C, HBS-EP
T1 construct: purchased Sino Biological 50441-M01H
T1 sequence (O08689 268-376): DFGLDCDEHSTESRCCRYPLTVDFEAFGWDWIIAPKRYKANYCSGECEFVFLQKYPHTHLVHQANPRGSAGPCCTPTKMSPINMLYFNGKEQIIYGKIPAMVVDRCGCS
Experimental: The human recombinant Myostatin-Fc protein (Sino Biological, #50441-M01H) was immobilized on the surface of a CM5 sensor chip at 2210.3 response units (RUs) using an EDC/NHS amine coupling kit, following the manufacturer’s instructions. […] Data analysis was performed using Biacore T200 Evaluation Software version 3.1 (Cytiva).

C2C12 cells [3] = assay: Indirect immunofluorescence (MyoD, MYH3) and fusion index; format: cell-based
Experimental: Differentiated C2C12 cells cultured on coverslips were fixed at room temperature for 10 min with PBS containing 3.7% paraformaldehyde. Next, the samples were permeabilized with 0.25% Triton X-100/PBS for 10 min, blocked with 1% BSA/PBS, and incubated overnight with primary antibodies, anti-MyoD (Santa Cruz, sc-377460) and anti-MYH3 (Santa Cruz, sc-53091), followed by washing with PBS. The samples were then incubated for 1 h Alexa Fluor 488–conjugated goat anti-mouse IgG H&L (abcam, ab150113). Nuclei were stained with 4′,6-diamidino-2-phenylindole (DAPI; blue) for 5 min. The coverslips were mounted onto glass slides using an aqueous mounting solution (Biomeda, Foster City, CA, USA) and left to dry. Images were captured using a confocal laser-scanning microscope (LEICA, Wetzlar, Germany) at ×200 and ×400 magnifications for MYH3 and MyoD, respectively. The fluorescence intensity of each marker was quantified using ImageJ. For fusion index analysis, MYH3-stained images were used to quantify myotube formation by counting the number of DAPI-positive nuclei located within MYH3-positive multinucleated myotubes (defined as MYH3-positive cells containing ≥2 nuclei) and the total number of nuclei per field. Fusion index (%) was calculated as (nuclei within MYH3-positive multinucleated myotubes/total nuclei) × 100. Fusion index was calculated from multiple randomly selected fields captured under identical imaging settings and quantified in ImageJ.

[4] = tested on: patients with muscle atrophy (ICD-10-CM code: M62.5); assay: Clinical trial: safety, treatment emergent adverse events; format: in vivo, human; conditions: 12 weeks, 200 mg/day, N=40
Excerpt: All participants provided written informed consent prior to any study procedures. Key eligibility criteria included adults aged ≥18 years with low muscle mass by DEXA (men: <7.0 kg/m^2; women: <5.4 kg/m^2) and either low handgrip strength (men: <28 kg; women: <18 kg) or low physical performance (6-m walk speed <1.0 m/s). Major exclusion criteria included uncontrolled systemic disease, musculoskeletal or neurological disorders, recent anabolic steroid use, and concomitant medications known to affect protein metabolism; full inclusion and exclusion criteria are provided in Supplementary Table S1. Of 89 patients screened, seven were screen failures and two withdrew prior to randomization; 80 eligible participants were enrolled and proceeded to the baseline/randomization visit (mean age 38.83 ± 9.91 years; range 23–69).
The study was double-blind; participants, investigators, and study staff were unaware of treatment allocation throughout the trial.
Efficacy endpoints were evaluated as changes from baseline to Week 12; efficacy analyses were conducted in the per-protocol population, and safety analyses included all randomized participants who received at least one dose of study product (Supplementary Figure S2). Of 80 randomized participants, 75 completed the study.

SAMP8 mice = assay: Sirius Red collagen deposition in muscle; format: in vivo, mouse; conditions: normalized to SAMR1 = 100%, oral gavage 45 weeks, 20 mg in 200 µL PBS, n = 5, mean ± SD
Experimental: Eight week old male senescence-accelerated mouse-prone 8 (SAMP8)/Ta Slc and senescence-accelerated mouse-resistant 1 (SAMR1)/Ta Slc mice (weighing 30 ± 2 g) were purchased from Central Lab Animal Inc. (Seoul, Korea) and housed at 24 °C in cages under a 12/12 h light/dark cycle with ad libitum access to food and water. […] Mice in all groups were dosed once daily by oral gavage for 45 weeks. […] This study was approved by the Institutional Animal Care and Use Committee (approval number CG-R22-001).
Quadriceps (Quad) and gastrocnemius (Gas) muscle tissues were harvested and immersion-fixed in 10% neutral buffered formalin at 4 °C for 24 h. Following fixation, the tissues were dehydrated through a graded series of ethanol, cleared in xylene, and embedded in paraffin. Paraffin-embedded tissues were sectioned at a thickness of 5 μm. The tissue sections mounted on slides were deparaffinized, washed, and stained with hematoxylin (Dako, S3309) and eosin (Thermo Fisher Scientific, #6766007) (H&E). To assess the degree of muscle fibrosis, they were also stained using a Sirius Red Stain Kit (Abcam, ab150681) according to the manufacturer’s instructions. […] For each animal, three images were randomly selected from the stained sections, and the total stained area per image, rather than individual muscle fibers, was quantified using ImageJ software.

[5] = Day 3, 100 μM, fluorescence intensity, mean ± SD

SPR binding to myostatin ([2]; seven concentrations, CM5 chip, 2210.3 RU immobilized, 30 μL/min, steady-state affinity fit, Kd not given): binds to Myostatin
response units (RUs) ([2]; SPR): increased dose-dependently
Substance: EAEYEHL-OH [Myoki]
increase in myotube length compared to the control (C2C12 cells [1]; Day 6, 100 μM, differentiation medium (2% horse serum), mean ± SD): 200% ± 33.88%
myotube length (C2C12 cells [1]; Days 0-6, Myoki 1, 10 and 100 μM): increased concentration- and time-dependently
association and dissociation ([2]; SPR): relatively rapid association and dissociation
increase in MYH3 expression compared to the control (C2C12 cells [3]; [5]): 191% ± 10.66%
increase in MyoD expression compared to the control (C2C12 cells [3]; [5]): 190% ± 46.28%
increase in MYH3 fluorescence staining compared to the control (C2C12 cells [3]; Day 6): 153%
TEAEs related to the study product [4]: No TEAEs were assessed as related to the study product
serious TEAEs [4]: no serious TEAEs were reported
severity and outcome of TEAEs [4]: all TEAEs were mild in severity and resolved
collagen deposition, quadriceps (SAMP8 mice; untreated SAMP8 185% ± 10.61%, difference not statistically significant): 151% ± 28.82%
collagen deposition, gastrocnemius (SAMP8 mice; untreated SAMP8 291% ± 19.72%): 194% ± 22.84%
